Results taken from ChEMBL document CHEMBL1201861, “Genomics of Drug Sensitity in Cancer screening data, Wellcome Trust Sanger Institute”.

Tests used:
Experiment in all cases: cells
MDA-MB-157 = assay type: functional, cell-based, Homo sapiens; conditions: Homo sapiens, MDA-MB-157
Description: SANGER: Inhibition of human MDA-MB-157 cell growth in a cell viability assay.

M14 = assay type: functional, cell-based, Homo sapiens; conditions: Homo sapiens, M14;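 note: growth inhibition of M14 cells, read out with a cell viability assay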
Description: SANGER: Inhibition of human M14 cell growth in a cell viability assay.

WM-115 = assay type: functional, cell-based, Homo sapiens; conditions: Homo sapiens, WM-115
Description: SANGER: Inhibition of human WM-115 cell growth in a cell viability assay.

LU-165 = assay type: functional, cell-based, Homo sapiens; conditions: Homo sapiens, LU-165
Description: SANGER: Inhibition of human LU-165 cell growth in a cell viability assay.

KYSE-520 cell line = assay type: functional, cell-based, Homo sapiens; conditions: Homo sapiens, KYSE-520;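 note: growth inhibition of human KYSE-520 cells, read out with a viability assay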
Description: SANGER: Inhibition of human KYSE-520 cell growth in a cell viability assay.

KYSE-410 = assay type: functional, cell-based, Homo sapiens; conditions: Homo sapiens, KYSE-410;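 note: growth inhibition of KYSE-410 cells, measured through a cell viability readout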
Description: SANGER: Inhibition of human KYSE-410 cell growth in a cell viability assay.

NCI-H1963 = assay type: functional, cell-based, Homo sapiens; conditions: Homo sapiens, NCI-H1963;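 note: cell growth inhibition of the human line, determined with a cell viability assay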
Description: SANGER: Inhibition of human NCI-H1963 cell growth in a cell viability assay.

NCI-H2030 = assay type: functional, cell-based, Homo sapiens; conditions: Homo sapiens, NCI-H2030;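 note: growth inhibition of human NCI-H2030 cells, read out by a cell viability assay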
Description: SANGER: Inhibition of human NCI-H2030 cell growth in a cell viability assay.

PA-1 = assay type: functional, cell-based, Homo sapiens; conditions: Homo sapiens, PA-1;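 note: IC50 for suppression of PA-1 cell proliferation, determined with a cell viability read-out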
Description: SANGER: Inhibition of human PA-1 cell growth in a cell viability assay.

KYSE-510 = assay type: functional, cell-based, Homo sapiens; conditions: Homo sapiens, KYSE-510;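 note: cell viability readout used to measure how strongly growth of the cell line is suppressed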
Description: SANGER: Inhibition of human KYSE-510 cell growth in a cell viability assay.

IGROV-1 = assay type: functional, cell-based, Homo sapiens; conditions: Homo sapiens, IGROV-1;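 note: reduction of IGROV-1 cell growth, read out with a viability assay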
Description: SANGER: Inhibition of human IGROV-1 cell growth in a cell viability assay.

HT-1080 = assay type: functional, cell-based, Homo sapiens; conditions: Homo sapiens, HT-1080
Description: SANGER: Inhibition of human HT-1080 cell growth in a cell viability assay.

AU565 = assay type: functional, cell-based, Homo sapiens; conditions: Homo sapiens, AU565;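 note: cell viability assay measuring growth inhibition of human AU565 cells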
Description: SANGER: Inhibition of human AU565 cell growth in a cell viability assay.

SAOS-2 = assay type: functional, cell-based, Homo sapiens; conditions: Homo sapiens, SAOS-2;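 note: growth inhibition of human Saos-2 cells determined by a cell viability assay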
Description: SANGER: Inhibition of human Saos-2 cell growth in a cell viability assay.

IGR-1 = assay type: functional, cell-based, Homo sapiens; conditions: Homo sapiens, IGR-1;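 note: growth inhibition of human IGR-1 cells, read out with a cell viability assay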
Description: SANGER: Inhibition of human IGR-1 cell growth in a cell viability assay.

COLO-679 = assay type: functional, cell-based, Homo sapiens; conditions: Homo sapiens, COLO-679
Description: SANGER: Inhibition of human COLO-679 cell growth in a cell viability assay.

SK-N-AS = assay type: functional, cell-based, Homo sapiens; conditions: Homo sapiens, SK-N-AS;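 note: growth inhibition of human SK-N-AS cells, measured with a cell viability assay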
Description: SANGER: Inhibition of human SK-N-AS cell growth in a cell viability assay.

NCI-H2141 = assay type: functional, cell-based, Homo sapiens; conditions: Homo sapiens, NCI-H2141;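 note: growth inhibition of human NCI-H2141 cells, read out with a cell viability assay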
Description: SANGER: Inhibition of human NCI-H2141 cell growth in a cell viability assay.

MKN-28 = assay type: functional, cell-based, Homo sapiens; conditions: Homo sapiens, MKN-28;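 note: cell viability assay read-out, IC50 reflects suppression of growth of human MKN-28 cells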
Description: SANGER: Inhibition of human MKN28 cell growth in a cell viability assay.

NCI-H748 = assay type: functional, cell-based, Homo sapiens; conditions: Homo sapiens, NCI-H748;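 note: growth inhibition of NCI-H748 cells, measured by a cell viability assay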
Description: SANGER: Inhibition of human NCI-H748 cell growth in a cell viability assay.

SK-MEL3 = assay type: functional, cell-based, Homo sapiens, SK-MEL-3; conditions: Homo sapiens, SK-MEL3;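 note: growth inhibition of human SK-MEL-3 cells, read out with a cell viability assay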
Description: SANGER: Inhibition of human SK-MEL-3 cell growth in a cell viability assay.

LU-99A = assay type: functional, cell-based, Homo sapiens; conditions: Homo sapiens, LU-99A;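 note: growth inhibition of LU-99A cells, read out with a cell viability assay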
Description: SANGER: Inhibition of human LU-99A cell growth in a cell viability assay.

CAL-54 = assay type: functional, cell-based, Homo sapiens; conditions: Homo sapiens, CAL-54;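 note: growth inhibition of CAL-54 cells, read out by a viability measurement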
Description: SANGER: Inhibition of human CAL-54 cell growth in a cell viability assay.

LOUCY = assay type: functional, cell-based, Homo sapiens; conditions: Homo sapiens, LOUCY;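 note: growth inhibition of human LOUCY cells, read out with a cell viability assay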
Description: SANGER: Inhibition of human LOUCY cell growth in a cell viability assay.

DoTc2-4510 = assay type: functional, cell-based, Homo sapiens; conditions: Homo sapiens, DoTc2-4510
Panc1005 = assay type: functional, cell-based, Homo sapiens; conditions: Homo sapiens, Panc1005;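 note: growth inhibition of human PANC-10-05 cells, measured by a cell viability assay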
Description: SANGER: Inhibition of human PANC-10-05 cell growth in a cell viability assay.

U-118-MG = assay type: functional, cell-based, Homo sapiens; conditions: Homo sapiens, U-118-MG
Description: SANGER: Inhibition of human U-118-MG cell growth in a cell viability assay.

NUGC-3 = assay type: functional, cell-based, Homo sapiens; conditions: Homo sapiens, NUGC-3;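 note: growth inhibition of human NUGC-3 cells, read out with a cell viability assay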
Description: SANGER: Inhibition of human NUGC-3 cell growth in a cell viability assay.

LoVo = assay type: functional, cell-based, Homo sapiens; conditions: Homo sapiens, LoVo;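 note: growth inhibition of human LoVo cells, read out with a cell viability assay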
Description: SANGER: Inhibition of human LoVo cell growth in a cell viability assay.

CAL-148 = assay type: functional, cell-based, Homo sapiens; conditions: Homo sapiens, CAL-148
Description: SANGER: Inhibition of human CAL-148 cell growth in a cell viability assay.

EB-3 = assay type: functional, cell-based, Homo sapiens; conditions: Homo sapiens, EB-3;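 note: human EB-3 cells, growth inhibition read out via a cell viability assay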
Description: SANGER: Inhibition of human EB-3 cell growth in a cell viability assay.

SW1417 = assay type: functional, cell-based, Homo sapiens; conditions: Homo sapiens, SW1417;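 note: growth inhibition of human SW1417 cells, read out with a cell viability assay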
Description: SANGER: Inhibition of human SW1417 cell growth in a cell viability assay.

HCC1569 = assay type: functional, cell-based, Homo sapiens; conditions: Homo sapiens, HCC1569;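 note: growth inhibition of human HCC1569 cells, read out with a cell viability assay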
Description: SANGER: Inhibition of human HCC1569 cell growth in a cell viability assay.

GDM-1 = assay type: functional, cell-based, Homo sapiens; conditions: Homo sapiens, GDM-1;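 note: cell viability readout used to measure growth inhibition of human GDM-1 cells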
Description: SANGER: Inhibition of human GDM-1 cell growth in a cell viability assay.

SUP-T1 = assay type: functional, cell-based, Homo sapiens; conditions: Homo sapiens, SUP-T1;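 note: growth inhibition of human SUP-T1 cells, read out as cell viability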
Description: SANGER: Inhibition of human SUP-T1 cell growth in a cell viability assay.

EGI-1 = assay type: functional, cell-based, Homo sapiens; conditions: Homo sapiens, EGI-1;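 note: cell viability readout used to gauge growth inhibition of EGI-1 cells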
Description: SANGER: Inhibition of human EGI-1 cell growth in a cell viability assay.

NCI-H596 = assay type: functional, cell-based, Homo sapiens; conditions: Homo sapiens, NCI-H596;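 note: growth inhibition of NCI-H596 cells, read out with a cell viability assay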
Description: SANGER: Inhibition of human NCI-H596 cell growth in a cell viability assay.

RPMI-7951 = assay type: functional, cell-based, Homo sapiens; conditions: Homo sapiens, RPMI-7951
Description: SANGER: Inhibition of human RPMI-7951 cell growth in a cell viability assay.

KMS-12-PE = assay type: functional, cell-based, Homo sapiens; conditions: Homo sapiens, KMS-12-PE;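 note: growth inhibition of human KMS-12-PE cells, measured with a cell viability assay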
Description: SANGER: Inhibition of human KMS-12-PE cell growth in a cell viability assay.

SCLC-21H = assay type: functional, cell-based, Homo sapiens; conditions: Homo sapiens, SCLC-21H;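 note: growth inhibition of cultured human SCLC-21H cells, read out with a cell viability assay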
Description: SANGER: Inhibition of human SCLC-21H cell growth in a cell viability assay.

A2058 = assay type: functional, cell-based, Homo sapiens; conditions: Homo sapiens, A2058;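 note: reduction of A2058 cell growth, read out with a viability assay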
Description: SANGER: Inhibition of human A2058 cell growth in a cell viability assay.

G-361 = assay type: functional, cell-based, Homo sapiens; conditions: Homo sapiens, G-361
NCI-H2052 = assay type: functional, cell-based, Homo sapiens; conditions: Homo sapiens, NCI-H2052;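 note: growth inhibition of NCI-H2052 cells, read out with a cell viability assay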
Description: SANGER: Inhibition of human NCI-H2052 cell growth in a cell viability assay.

A-427 = assay type: functional, cell-based, Homo sapiens; conditions: Homo sapiens, A-427;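 note: growth inhibition of human A-427 cells, read out by a cell viability assay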
Description: SANGER: Inhibition of human A427 cell growth in a cell viability assay.

DBTRG-05MG = assay type: functional, cell-based, Homo sapiens; conditions: Homo sapiens, DBTRG-05MG;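 note: cell viability assay measuring growth inhibition of human DBTRG-05MG cells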
Description: SANGER: Inhibition of human DBTRG-05MG cell growth in a cell viability assay.

SNU-423 = assay type: functional, cell-based, Homo sapiens; conditions: Homo sapiens, SNU-423
Description: SANGER: Inhibition of human SNU-423 cell growth in a cell viability assay.

NCI-H2170 = assay type: functional, cell-based, Homo sapiens; conditions: Homo sapiens, NCI-H2170;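 note: cell viability assay measuring growth inhibition of human NCI-H2170 cancer cells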
Description: SANGER: Inhibition of human NCI-H2170 cell growth in a cell viability assay.

Measured: IC50

O=C(O)c1ccc(-c2c[nH]c3ncc(-c4ccccc4)cc23)cc1C1CCCC1 [GSK-650394]
5.29 µM: IGROV-1
13.5 µM: A2058
2.13 µM: KYSE-510
5.49 µM: HT-1080
11.7 µM: MKN-28
4.23 µM: IGR-1
3.33 µM: PA-1
3.72 µM: G-361
0.879 µM: GDM-1
1.88 µM: A-427
5.3 µM: COLO-679
11.4 µM: Panc1005
9.91 µM: LoVo
> 16 µM: all other assays above
